# Article PMC3929365, “Benzimidazoisoquinolines: A New Class of Rapidly Metabolized Aryl Hydrocarbon Receptor (AhR) Ligands that Induce AhR-Dependent Tregs and Prevent Murine Graft-Versus-Host Disease” (PLoS ONE, 2014)
# Key:
# [1] = tested on: activated T cells; experiment: T cell proliferation in vitro (CFSE dilution, anti-CD3/anti-CD28); type: cell-based, C57Bl/6 mice; conditions: 100 nM, 72 h, anti-CD3 and anti-CD28
# Description: A. Splenocytes from C57Bl/6 mice were labeled with CFSE and activated in vitro with anti-CD3 and anti-CD28 in the presence of 100 nM 10-Cl-BBQ or DMSO for 72 h. B. C57Bl/6 donor T cells were labeled with CFSE and injected into B6D2F1 host mice to initiate the GVH response. Host mice (n = 5 per group) were treated with vehicle or 10-Cl-BBQ i.p. (10 mg/kg/d) for two days. Donor cells were identified by gating on CD4^+CFSE^+ cells. […] (TIF) Click here for additional data file.
# [2] = tested on: GVHD; experiment: Graft-versus-host disease (GVHD) model, 15 days; type: in vivo; conditions: for GVHD pathology (clinical pathology score): 10 mg/kg then 2 mg/kg/day, day 15
# Description: Splenocytes and lymphocytes were harvested from C57Bl/6 mice. In some experiments, T cells were purified by negative selection using a Pan-T kit (Miltenyi Biotec) and stained with 2 µM carboxyfluorescein succinimidyl ester (CFSE) (Life Technologies). At least 2×10^7 purified T cells or approximately 1×10^8 pooled splenocytes and lymphocytes were injected i.v. into B6D2F1 host mice to initiate the GVH response. GVHD pathology was assessed on a scale of 0 to 3 (0 = normal, 1 = moderate morbidity, 2 = severe morbidity, 3 = death) according to the following five criteria: weight-loss, posture, activity, fur texture and death and reported as a Clinical GVHD Score.
# Host mice were treated daily with vehicle, 10-Cl-BBQ or BBQ analogues by i.p. injection. The vehicle consisted of a mixture of 6.7% anisole and peanut oil. Mice treated with a single i.p. dose of 15 µg TCDD/kg body weight in the same vehicle were used as positive controls.
# Figure 4 10-Cl-BBQ suppresses GVHD in an AhR-dependent manner. A) B6D2F1 host mice were injected with wild-type (WT) or AhR-deficient (AhR^−/−) splenocytes to initiate the GVH response; mice were given 10-Cl-BBQ or vehicle treatments daily for 15 days. A single loading dose of 10 mg/kg 10-Cl-BBQ was given at the time of donor cell injection and a maintenance dose of 2 mg/kg was given every day thereafter until the end of the experiment. The progression of GVHD was monitored and a clinical pathology score as defined in Methods was calculated. GVHD was suppressed by 10-Cl-BBQ only if the donor cells expressed AhR. In a separate study, B6D2F1 host mice in groups of 6 were injected with splenocytes from C57Bl/6 mice to initiate the GVH response, and treated with 10-Cl-BBQ or vehicle daily for 15 days as in (A). TCDD (15 µg/kg) was given to an additional group of 6 mice on day 0 as a positive control. […] The donor cells were identified in the host spleen as the H-2D^d negative population.* = p<0.05 vs vehicle control. TEXT PRINTED IN THE PICTURE: (C) TCDD: 17 | (C) 10-Cl-BBQ: 11 | (E) TCDD: 29 | (E) 10-Cl-BBQ: 35 DOUBTS OF THE COPYIST ABOUT THIS PICTURE: Panels C and E: the numbers inside the flow cytometry plots are printed without any measure or unit, so they are copied as bare numbers (plot axes: CD44 vs CD45RB in C, CD19 vs H-2D^d in E). / The Vehicle control plots also print numbers (C: 36; E: 2). They are not listed in lines because Vehicle is a control, not a substance.
# [3] = Pharmacokinetics: serum concentration after single i.p. injection; type: in vivo, C57Bl/6 mice; conditions: 10 mg/kg i.p., mouse
# Description: C57Bl/6 mice were injected i.p. with 10 mg/kg 10-Cl-BBQ. At defined time points, blood was collected by cardiac puncture. Serum was harvested and protein was precipitated by adding a 4-fold volume of ice-cold acetonitrile. The supernatant was collected and analyzed on a QTRAP 4000 LC/MS/MS instrument using an Agilent C8 UPLC column. The serum concentration of 10-Cl-BBQ was determined using a standard curve prepared using dilutions of 10,000; 5,000; 1,000; 500; 100; 50 and 10 pg/ml of 10-Cl-BBQ. The mean values (n = 2–3 mice per time point) are shown with SEM. Pharmacokinetic parameters were calculated using PKsolver software.
# Figure 2 Pharmacokinetics of 10-Cl-BBQ. C57BL/6 mice were given 10 mg/kg 10-Cl-BBQ by i.p. injection. A) Blood was collected at the indicated times by cardiac puncture. The serum was processed to remove protein and the samples were analyzed by QTRAP 4000 LC/MS/MS. The serum concentration of 10-Cl-BBQ was determined from a standard curve based on known concentrations of 10-Cl-BBQ. B) Liver tissue was harvested and processed for mRNA analysis. CYP1A1 gene expression was determined relative to the β-actin gene, and the fold-induction was determined by the ΔΔCt method using the vehicle-treated samples as a control. The mean values are shown with SEM for 2–3 mice per time point.
smiles,measurement,setting,value
"O=c1c2cccc3cccc(c32)c2nc3ccc(Cl)cc3n12 [10-Cl-BBQ, 10-chloro-7H-benzimidazo[2,1-a]benzo[de]isoquinolin-7-one]",proliferation of activated T cells in vitro,[1],did not inhibit proliferation
same,GVHD pathology (clinical pathology score),[2]; AhR-deficient donor cells,not affected
same,GVHD pathology (clinical pathology score),[2]; AhR-wild type donor cells,significantly reduced
same,overt toxicity,[2]; daily treatment during the GVH response,without overt toxicity
same,engraftment of donor cells in host spleen,"[2]; day 15, 10 mg/kg then 2 mg/kg daily",significantly reduced the engraftment of donor cells
same,absorption rate constant (ka),[3],1.2 h⁻¹
same,time required to reach Cmax (Tmax),[3],1.64 h
same,total clearance/bioavailability (CL/F),[3],32.5 mL/min
same,half-life,"[3]; C57Bl/6, serum, ip, one compartment model",~2 h
same,AUC(0-inf),"[3]; C57Bl/6, serum, ip, read-out: area under the concentration-time curve (AUC0-∞)",102 ng·h/mL
same,Cmax,"[3]; C57Bl/6, serum, ip, read-out: maximum concentration reached in serum (Cmax)",21.5 ng/mL
same,Vd/F,"[3]; C57Bl/6, serum, ip, read-out: volume of distribution/bioavailability (V/F)",5.66 L
